From patent publication US9981916B2 (Genentech, Inc., priority 2013, dated 2018) come the findings set out here.

SMILES strings stand for the structures. pIC50: −log10 of the molar value.

The test has as its target T1, RORc ligand binding domain (Homo sapiens, UniProt P51449).
T1 construct: host or cells: E. coli
T1 sequence (P51449 269-508 limits assumed): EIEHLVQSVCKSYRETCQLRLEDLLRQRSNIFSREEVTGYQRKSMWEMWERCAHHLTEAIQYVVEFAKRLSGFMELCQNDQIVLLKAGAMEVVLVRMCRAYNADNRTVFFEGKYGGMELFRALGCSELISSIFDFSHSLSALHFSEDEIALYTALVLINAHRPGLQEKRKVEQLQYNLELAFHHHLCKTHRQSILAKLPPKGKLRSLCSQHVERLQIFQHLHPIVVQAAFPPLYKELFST
Description: In vitro RORc ligand binding assay (25-[3H]hydroxycholesterol displacement, filter binding). To be noted: 6 nM 25-[3H]hydroxycholesterol, 0.6 ug/mL RORc receptor, 3 h at 25° C. The protocol: Example 17: In Vitro RORc Ligand Binding Assay
This assay was used to determine a compound's potency in inhibiting activity of RORc by determining, Kiapp, IC50, or percent inhibition values.
On day of the assay, 100 uL of 0.05% CHAPS (in deionized H2O) was added to all wells of the GFB Unifilter plate and allowed soak for 1 h. A wash buffer of 50 mM HEPES (pH 7.4), 150 mM NaCl, and 5 mM MgCl2 was prepared to wash the filter plate. To prepare an assay buffer, BSA was added to the wash buffer to reach 0.01% and DTT was added to reach 1 mM.
For IC50 mode, 10 mM compound stocks were serially diluted in DMSO with DMSO to give 20× required final concentration in DMSO (15 uL compound+30 uL DMSO). The 20× compound stocks were diluted in DMSO with Assay Buffer 4-fold to reach 5× the final test concentration in 25% DMSO (10 uL compound+30 uL Assay Buffer). Solutions were mixed by aspiration several times with a pipette set on 50 uL volume. For the assay, 10 uL of 5× compound stock solutions in 25% DMSO were added to the assay plate in duplicate.
For two point screening, 10 mM stock compound solutions were diluted in DMSO to obtain 200 uM (20× the high test concentration) and then diluted 10-fold further to reach 20 uM (20× the low test concentration). The 20× stocks were diluted 4-fold with Assay Buffer (10 uL compound+30 uL Assay Buffer) to reach 5× the test concentrations (50 uM and 5 uM) and 10 uL were added to two assay plates for the duplicate wells. With each concentration tested on 2 plates, each set of 80 compounds used 4 assay plates (1 uM and 10 uM, with n=2).
25-hydroxycholesterol (1 uM) was used to determine the level of NSB signal is prepared in DMSO as for compounds above, then diluted in Assay Buffer to give a final concentration of 5 uM. For 25-hydroxycholesterol in 25% DMSO/75% Assay Buffer; 10 uL per well was used for NSB samples. Wells for Total Binding and No Receptor sample determination contained 10 uL of 25% DMSO/75% Assay Buffer per well.
25-[^3H]hydroxycholesterol was diluted in Assay Buffer to obtain 15 nM and vortex to mix. Add 20 uL to all wells to reach 6 nM final concentration in the assay.
Stock receptor solution was diluted in assay buffer to obtain 1.5 ug/mL in Assay Buffer. 20 uL was added to all wells. For No Receptor samples, 20 uL Assay Buffer was substituted for receptor solution.
Assay plates were 96-well polypropylene V-bottom plates. 10 uL of 5× compound in 25% DMSO/75% Assay Buffer was added to Test wells. 10 uL of 25% DMSO/75% Assay Buffer was added to Total Binding or No Receptor wells. 10 uL of 5 uM 25-hydroxycholesterol in 25% DMSO/75% Assay Buffer was added to NSB wells. 20 uL of 15 nM 25-[^3H]hydroxycholesterol prepared in Assay Buffer was added to all wells. 20 uL of 1.5 ug/mL RORc receptor was added to wells (or […] Assay Buffer to No R wells). Following addition to the wells, the plates were incubated 3 h at 25° C.
Using a Packard Filtermate Harvester, the filter plate were washed 4 times following transfer of the incubated samples. Plates were dry-filtered completely (2 h at 50° C. or overnight at room temperature). 50 uL Microscint 0 was added to all wells and read on Topcount protocol Inverted.
Final concentrations were as follows: 50 mM HEPES buffer (pH 7.4); 150 mM NaCl; 1 mM DTT; 5 mM MgCl2; 0.01% BSA; 5% DMSO; 0.6 ug/mL RORc receptor; 6 nM 25-[^3H]hydroxycholesterol. For NSB wells, 1 uM 25-hydroxycholesterol was also present.
Turning to `Cc1c(-c2ccccc2F)nnc2c1[C@H]1CC[C@]2(C)C1(C)C` [Example 33, (5S,8R)-3-(2-fluorophenyl)-4,8,9,9-tetramethyl-5,6,7,8-tetrahydro-5,8-methanocinnoline], the pIC50 is 5.91. Compound `CC1(C)[C@@H]2CC[C@@]1(CN1CCNC1=O)c1nnc(-c3ccccc3F)cc12` [Example 34, 1-{[(5S,8R)-3-(2-fluorophenyl)-9,9-dimethyl-6,7-dihydro-5,8-methanocinnolin-8(5H)-yl]methyl}imidazolidin-2-one] gave a pIC50 of 6.61.

Turning to `CC[C@]12CC[C@H](c3cc(-c4ccccc4F)nnc31)C2(C)C` [Example 35, (5S,8R)-8-ethyl-3-(2-fluorophenyl)-9,9-dimethyl-5,6,7,8-tetrahydro-5,8-methanocinnoline], the pIC50 is 7.43. On to `CN(C)C(=O)C[C@]12CC[C@H](c3cc(-c4ccccc4F)nnc31)C2(C)C` [Example 36, 2-[(5S,8S)-3-(2-fluorophenyl)-9,9-dimethyl-6,7-dihydro-5,8-methanocinnolin-8(5H)-yl]-N,N-dimethylacetamide], for which the pIC50 is 5.29. `CNC(=O)C[C@]12CC[C@H](c3cc(-c4ccccc4F)nnc31)C2(C)C` [Example 37, 2-[(5S,8S)-3-(2-fluorophenyl)-9,9-dimethyl-6,7-dihydro-5,8-methanocinnolin-8(5H)-yl]-N-methylacetamide]: the pIC50 is 6.06. The figure for `CC(C)OC[C@]12CC[C@H](c3cc(-c4ccccc4F)nnc31)C2(C)C` [Example 38, (5S,8S)-3-(2-fluorophenyl)-9,9-dimethyl-8-[(propan-2-yloxy)methyl]-5,6,7,8-tetrahydro-5,8-methanocinnoline] is 6.55.

`Cc1nc(C[C@]23CC[C@H](c4cc(-c5ccccc5F)nnc42)C3(C)C)no1` [Example 39, (5S,8S)-3-(2-fluorophenyl)-9,9-dimethyl-8-[(5-methyl-1,2,4-oxadiazol-3-yl)methyl]-5,6,7,8-tetrahydro-5,8-methanocinnoline] had a pIC50 of 5.76.

`COCC12CCC(c3cc(-c4ccccc4F)nnc31)C21CC1` (stereo not drawn) [Example 40, 3′-(2-fluorophenyl)-8′-(methoxymethyl)-5′,6′,7′,8′-tetrahydro-spiro[cyclopropane-1,9′-[1,2]diaza[5,8]methanocinnoline]] showed a pIC50 of 6.46.

Take `COCC[C@]12CC[C@H](c3cc(-c4ccccc4F)nnc31)C2(C)C` [Example 41, (5S,8S)-3-(2-fluorophenyl)-8-(2-methoxyethyl)-9,9-dimethyl-5,6,7,8-tetrahydro-5,8-methanocinnoline]: the pIC50 is 7.27. Consider `Cc1noc(C[C@]23CC[C@H](c4cc(-c5ccccc5F)nnc42)C3(C)C)n1` [Example 42, (5S,8S)-3-(2-fluorophenyl)-9,9-dimethyl-8-[(3-methyl-yl)methyl]-5,6,7,8-tetrahydro-5,8-methanocinnoline], for which the pIC50 was 6.62. The compound `CNC(=O)N(C)C[C@]12CC[C@H](c3cc(-c4ccccc4F)nnc31)C2(C)C` [Example 43, 1-{[(5S,8R)-3-(2-fluorophenyl)-9,9-dimethyl-6,7-dihydro-5,8-methanocinnolin-8(5H)-yl]methyl}-1,3-dimethylurea] gave a pIC50 of 6.20.

The compound `Cc1ccn(C[C@]23CC[C@H](c4cc(-c5ccccc5F)nnc42)C3(C)C)n1` [Example 44, (5S,8R)-3-(2-fluorophenyl)-9,9-dimethyl-8-[(3-methyl-1H-pyrazol-1-yl)methyl]-5,6,7,8-tetrahydro-5,8-methanocinnoline] had a pIC50 of 6.22. The figure for `CC1(C)[C@@H]2CC[C@@]1(Cc1noc(CO)n1)c1nnc(-c3ccccc3F)cc12` [Example 45, (3-{[(5S,8S)-3-(2-fluorophenyl)-9,9-dimethyl-6,7-dihydro-5,8-methanocinnolin-8(5H)-yl]methyl}-1,2,4-oxadiazol-5-yl)methanol] is 6.12; for `CN1CCN(C[C@]23CC[C@H](c4cc(-c5ccccc5F)nnc42)C3(C)C)C1=O` [Example 46, 1-{[(5S,8R)-3-(2-fluorophenyl)-9,9-dimethyl-6,7-dihydro-5,8-methanocinnolin-8(5H)-yl]methyl}-3-methylimidazolidin-2-one] it is 5.84; for `Cc1cnn(C[C@]23CC[C@H](c4cc(-c5ccccc5F)nnc42)C3(C)C)c1` [Example 47, (5S,8R)-3-(2-fluorophenyl)-9,9-dimethyl-8-[(4-methyl-1H-pyrazol-1-yl)methyl]-5,6,7,8-tetrahydro-5,8-methanocinnoline] it is 6.57.

Regarding `CC1(C)[C@@H]2CC[C@@]1(CN1CCN(CCN3CCOCC3)C1=O)c1nnc(-c3ccccc3F)cc12` [Example 48, 1-{[(5S,8R)-3-(2-fluorophenyl)-9,9-dimethyl-6,7-dihydro-5,8-methanocinnolin-8(5H)-yl]methyl}-3-[2-(morpholin-4-yl)ethyl]imidazolidin-2-one], the pIC50 was 6.19. For `CC1(C)[C@@H]2CC[C@@]1(C(=O)N1CCC1)c1nnc(-c3c(F)cccc3F)cc12` [Example 49, azetidin-1-yl[(5S,8S)-3-(2,6-difluorophenyl)-9,9-dimethyl-6,7-dihydro-5,8-methanocinnolin-8(5H)-yl]methanone], the pIC50 was 7.36.

Compound `CC1(C)[C@@H]2CC(=O)[C@@]1(C)c1nnc(-c3ccccc3F)cc12` [Example 50, (5S,8R)-3-(2-fluorophenyl)-8,9,9-trimethyl-5,8-dihydro-5,8-methanocinnolin-7(6H)-one] showed a pIC50 of 5.62. For the compound `C=C1C[C@@H]2c3cc(-c4ccccc4F)nnc3[C@@]1(C)C2(C)C` [Example 51, (5S,8R)-3-(2-fluorophenyl)-8,9,9-trimethyl-7-methylidene-5,6,7,8-tetrahydro-5,8-methanocinnoline], the pIC50 is 6.18. In turn, `CC1(C)[C@@H]2CC[C@@]1(C#N)c1nnc(-c3ccccc3F)cc12` [Example 52, (5S,8S)-3-(2-fluorophenyl)-9,9-dimethyl-6,7-dihydro-5,8-methanocinnoline-8(5H)-carbonitrile] showed a pIC50 of 5.82. In turn, `CNC(=O)[C@]12CC[C@H](c3cc(-c4c(F)cccc4F)nnc31)C2(C)C` [Example 53, (5S,8S)-3-(2,6-difluorophenyl)-N,9,9-trimethyl-6,7-dihydro-5,8-methanocinnoline-8(5H)-carboxamide] had a pIC50 of 6.86. The result for `CC1(C)[C@@H]2CC[C@@]1(C(=O)N1CCOCC1)c1nnc(-c3c(F)cccc3F)cc12` [Example 54, [(5S,8S)-3-(2,6-difluorophenyl)-9,9-dimethyl-6,7-dihydro-5,8-methanocinnolin-8(5H)-yl](morpholin-4-yl)methanone] reads 7.38; that for `CON(C)C(=O)[C@]12CC[C@H](c3cc(-c4c(F)cccc4F)nnc31)C2(C)C` [Example 55, (5S,8S)-3-(2,6-difluorophenyl)-N-methoxy-N,9,9-trimethyl-6,7-dihydro-5,8-methanocinnoline-8(5H)-carboxamide], 6.91; that for `CC1(C)[C@H]2CC[C@]1(CN1CCOCC1)c1nnc(-c3c(F)cccc3F)cc12` [Example 56, (5R,8S)-3-(2,6-difluorophenyl)-9,9-dimethyl-8-(morpholin-4-ylmethyl)-5,6,7,8-tetrahydro-5,8-methanocinnoline], 6.60.

For orientation: pIC50 means −log10 of the IC50, conventionally taken in molar units. High values mean a small IC50, low ones a large IC50.
